The subject of experiment [1] is melanin within the melanocytes. Description: Melanin deposits in melanocytes of skin explants, Fontana-Masson silver stain. The following applies: Day 5. In kind it is cell-based, human. Here is the method:
(§1) Skin samples from an abdominal plastic surgery patient are placed in a specific explant survival medium BEM from Centre de Recherche Laboratoire BIO-EC (Clamart, France). Once daily, the living skin explants are irradiated with a Vilber Lourmat solar simulator RMX3W (Marne-la-Vallee, France) at a dose of 75 mJ/cm^2 within a wavelength range of 290-330 nm and a peak of 312 nm (UVB) for 80 seconds.
(§2) Five minutes following irradiation, the skin samples are treated with a topical application of 2 mg/cm^2 of a gel formulation comprising the Phytocytol™ BLM, a stable flavonoid solution according to the present invention. The gel formulation is made according to the following procedure: Three separate gels, each containing one of baicalin, luteolin and myricetin, are prepared according to the same procedure. In a main beaker, add DI Water, Germall Plus and Carbopol Ultrez-10. When Carbopol is dispersed add ¼ of the indicated amount of Neutrol TE. Add Polycast-3 and continue mixing. Add the flavonoid solution (A, B and C) until homogenous. Add the remaining Neutrol TE and mix. The resulting Baicalin Gel, Luteolin Gel and Myricetin Gel are mixed in equal parts to form a gel having a pH of 6.91 and a viscosity of 30,500 cps (LV4@12 rpm). […]

For another experiment, the system named is melanocyte dendricity. Description: Melanocyte dendricity in skin explant cryostat sections, Anti-Melan-A immunofluorescence. Type of experiment: cell-based, human. The following applies: Day 5. Here is the method:
as §1, §2

The target of the next experiment is T1, tyrosinase (Homo sapiens, UniProt P14679).
T1 construct: Where tyrosinase is active, L-DOPA is oxidized, producing an observable black pigment in the melanocytes; from tissue; host or cells: living abdominal skin explants (melanocytes)
T1 sequence (P14679 19-529): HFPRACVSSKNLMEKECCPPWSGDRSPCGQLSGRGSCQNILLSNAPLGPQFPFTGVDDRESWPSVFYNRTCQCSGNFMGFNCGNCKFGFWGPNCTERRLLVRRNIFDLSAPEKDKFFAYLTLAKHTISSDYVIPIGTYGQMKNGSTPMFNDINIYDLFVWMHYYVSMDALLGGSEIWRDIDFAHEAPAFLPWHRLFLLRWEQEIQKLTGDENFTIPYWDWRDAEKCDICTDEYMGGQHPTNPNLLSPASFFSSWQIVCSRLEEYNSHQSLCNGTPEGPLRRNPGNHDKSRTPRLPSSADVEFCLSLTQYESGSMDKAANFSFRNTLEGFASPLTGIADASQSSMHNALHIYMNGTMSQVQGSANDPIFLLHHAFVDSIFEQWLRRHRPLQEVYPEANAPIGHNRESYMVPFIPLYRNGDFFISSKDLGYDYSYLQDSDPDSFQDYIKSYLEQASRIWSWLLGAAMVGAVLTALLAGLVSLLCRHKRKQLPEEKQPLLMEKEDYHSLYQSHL
Description: Tyrosinase activity in living skin explant sections (L-DOPA method of Laidlaw and Blackberg). Type of experiment: cell-based. The following applies: non-irradiated skin explants, topical gel 2 mg/cm^2, Day 5.

One molecule from patent US20100227826A1, “Stable Flavonoid Solutions” (priority 2005, published 2010) can be followed below.

Each structure is given as a SMILES string.

For `OC[C@H]1O[C@@H](Oc2ccc(O)cc2)[C@H](O)[C@@H](O)[C@@H]1O` [arbutin], the results for the melanin deposits result in experiment [1] (absence of UVB irradiation) and in experiment [1] (after exposure to UVB irradiation) were “low levels of melanin deposits” and “An increase in melanin deposits is not observed”, respectively. Further, the “level of melanocyte dendricity” value is on record as “low level of dendricity” in the experiment with melanocyte dendricity (after UVB irradiation, skin explants) and “low level of dendricity” in the experiment on melanocyte dendricity (non-UVB irradiated skin explants). Moreover, at tyrosinase, the “level of tyrosinase activity” value is “substantially greater compared to the arbutin-treated samples”.
